The values below come from US10993947B2, “Treatment of skin lesions” (PIQUR THERAPEUTICS AG, priority 2016, dated 2021).

Data set [1] addresses T1, N-terminally GST-tagged mTOR (Homo sapiens, UniProt P42345).
T1 construct: truncated version: amino acids 1360-2549; purchased Life Technologies PR8683B
The data set can be described thus: In vitro mTOR binding assay (LanthaScreen TR-FRET). The note with it: LanthaScreen kinase binding, Tracer 314; read-out: mTOR IC50 (binding). On the technique in general: Time-resolved FRET reads energy transfer from a long-lived donor to a nearby acceptor.
Procedure: A 10-point 4-fold serial dilution (highest concentration at 10 μmol/L and lowest concentration at 40 μmol/L) of each compound was tested for mTOR binding in duplicate in a 384-well plate. […] After 30 min incubation at RT, time-resolved FRET was measured with a Synergy 4 multi-mode microplate reader (Biotek Instruments) using the following settings: 100 microsecs delay before data collection, 200 microsecs time for data collection, 10 measurements per data point.
IC50 values of each compound were determined by plotting the emission ratio versus the compound concentrations (in logarithmic scale) and then by fitting a sigmoidal dose-response curve with variable slope to the data using GraphPad™ Prism.

For data set [2], the system named is excised pig skin. The note with it: 1 %.
Source text: Excised pig skin was placed in a climate chamber to control temperature and humidity. […] Before biopsies were taken the stratum corneum was removed by tape stripping and biopsies consisted of the remaining epidermis and entire dermis.
The subject of data set [3] is pig skin (lower epidermis and dermis). The data set can be described thus: Ex vivo pig skin penetration, first study (80% SBECD formulations). In kind it is in vitro ADME. From the text: FIG. 3: PK profiles of nine formulations comprising the inventive compounds and control have been assessed. The control formulation Aldara (5% imiquimod) was applied to detect variations in skin permeability (local variability in the same animal and inter-subject variability). The stratum corneum was removed by tape stripping to avoid contamination during the biopsy extraction. […] One biopsy was taken from each control site. Additionally, 5 blank samples were taken.
Ex vivo and in vivo models to assess the penetration of various drug substances including the inventive compounds in the skin of pigs have been established. This model allows to assess the PK profile of several drug candidates including the inventive compounds in one subject, thereby enhancing comparability and avoiding inter-subject variability.
In the first study (FIG. 3, Table 15) the PK profiles of nine test formulations have been assessed using 80% SBECD either at pH3 or pH 7.

The test system of data set [4] is pPKB S473 in A2058 cells. The data set can be described thus: In-cell Western blot, pPKB S473. The note with it: Homo sapiens, 1 hour treatment. In kind it is cell-based.
Procedure: (§1) Cells are fixed with 4% paraformaldehyde for 30 minutes at room temperature, washed 2 times with 1% BSA in PBS, permeabilized with 0.1% Triton X-100 in PBS/1% BSA for 30 minutes at room temperature and blocked with 5% goat serum in PBS/1% BSA/0.1% Triton X-100 for 30 minutes at room temperature. […] Cells are washed 3 times 5 minutes with PBS/1% BSA/0.1% triton and plate scanned with the Odyssey Infrared Scanning system using both 700 and 800 nm channels. […] To correct for background staining in the data analysis wells are treated only with secondary antibodies.
(§2) For data analysis the mean background signal from channel 700 nm and 800 nm are subtracted from each signal in channel 700 nm and 800 nm, respectively.
(§3) IC50 values of each compound are determined by plotting the normalized pPBK S473 and pS6 S235/S236 signals, respectively, versus the compound concentrations (in logarithmic scale) and then by fitting a sigmoidal dose-response curve with variable slope to the data using GraphPad™ Prism.
The subject of data set [5] is pS6 S235/S236 in A2058 cells. The data set can be described thus: In-cell Western blot, pS6 S235/S236. The format is cell-based. Conditions: Homo sapiens, 1 hour treatment.
Procedure: as §1, §2, §3

Marks after values point to notes of the source that are not given here.

T1 sequence (P42345 1360-2549): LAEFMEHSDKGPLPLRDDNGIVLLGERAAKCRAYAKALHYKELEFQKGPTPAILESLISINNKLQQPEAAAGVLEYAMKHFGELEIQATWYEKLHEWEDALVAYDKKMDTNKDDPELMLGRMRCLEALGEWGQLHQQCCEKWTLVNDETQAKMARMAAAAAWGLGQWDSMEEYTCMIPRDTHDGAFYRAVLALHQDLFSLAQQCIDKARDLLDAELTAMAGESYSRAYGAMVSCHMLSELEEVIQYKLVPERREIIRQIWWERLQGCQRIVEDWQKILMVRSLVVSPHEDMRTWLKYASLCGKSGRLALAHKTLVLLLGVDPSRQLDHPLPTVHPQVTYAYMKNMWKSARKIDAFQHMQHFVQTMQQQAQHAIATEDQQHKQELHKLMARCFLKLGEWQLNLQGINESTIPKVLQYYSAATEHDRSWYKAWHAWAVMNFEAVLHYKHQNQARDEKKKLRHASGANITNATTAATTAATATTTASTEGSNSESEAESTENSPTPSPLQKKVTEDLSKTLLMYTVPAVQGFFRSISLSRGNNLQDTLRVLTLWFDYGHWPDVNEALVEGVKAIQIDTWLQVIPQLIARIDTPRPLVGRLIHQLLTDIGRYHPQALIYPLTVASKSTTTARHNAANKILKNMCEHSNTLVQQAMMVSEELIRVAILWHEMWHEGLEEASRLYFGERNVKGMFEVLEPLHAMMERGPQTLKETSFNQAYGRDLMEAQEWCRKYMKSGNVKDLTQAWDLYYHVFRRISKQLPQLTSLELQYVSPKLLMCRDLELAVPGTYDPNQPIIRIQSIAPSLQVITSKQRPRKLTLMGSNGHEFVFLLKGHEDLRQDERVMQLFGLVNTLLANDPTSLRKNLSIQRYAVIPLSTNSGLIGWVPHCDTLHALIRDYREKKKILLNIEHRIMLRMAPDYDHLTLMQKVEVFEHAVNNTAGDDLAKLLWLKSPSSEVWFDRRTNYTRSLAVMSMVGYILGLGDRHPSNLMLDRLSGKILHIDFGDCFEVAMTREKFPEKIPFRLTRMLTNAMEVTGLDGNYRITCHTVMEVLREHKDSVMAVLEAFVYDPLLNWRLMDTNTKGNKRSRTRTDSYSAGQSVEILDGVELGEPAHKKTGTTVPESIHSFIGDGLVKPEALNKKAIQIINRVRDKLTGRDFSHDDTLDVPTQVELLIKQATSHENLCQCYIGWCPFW

Broadly, the IC50 is the concentration that gives 50% inhibition. For the molecule `Nc1cc(C(F)F)c(-c2nc(N3C4CCC3COC4)nc(N3C4CCC3COC4)n2)cn1` [Compound 3, 5-(4-(3-oxa-8-azabicyclo[3.2.1]octan-8-yl)-6-(3-oxa-8-azabicyclo[3.2.1]octan-8-yl)-1,3,5-triazin-2-yl)-4-(difluoromethyl)pyridin-2-amine], the IC50 in data set [1] amounted to 8 nM; in data set [4] (A2058, 1 h) it was 231 nM; in data set [5] (A2058, 1 h) it was 105 nM. In data set [2], the “skin concentration / skin PK profile” value is recorded as “comparable to Cpd1*”. In addition, the “penetration into pig skin” value in data set [3] (1% experimental formulations, 80% SBECD, ex vivo) was “penetrated into pig skin (lower epidermis and dermis) to a significant extent”. In data set [3] (ex vivo pig skin, estimated), the “intrinsic penetration properties compared with imiquimod (Aldara 5% cream)” value was “slightly lower”.
With `C[C@H]1COCCN1c1nc(-c2cnc(N)nc2C(F)F)nc(N2CCOCC2)n1` [Compound 9], the results for the 50% inhibitory concentration (IC50) in data set [1], in data set [4] and in data set [5] were 24 nM, 35 nM and 72 nM, respectively.
As to `C[C@H]1COCCN1c1cc(-c2cnc(N)nc2C(F)F)nc(N2CCOC[C@@H]2C)n1` [Compound 26, 4′-(difluoromethyl)-2,6-bis((S)-3-methylmorpholino)-[4,5′-bipyrimidin]-2′-amine], the IC50 amounted to 47 nM in data set [1]; 87 nM in data set [4] (A2058, 1 h); 191 nM in data set [5] (A2058, 1 h).
In the same order, the values of `CC1(C)COCCN1c1nc(-c2cnc(N)cc2C(F)F)nc(N2CCOCC2(C)C)n1` [Compound 39, 5-[4,6-bis(3,3-dimethylmorpholin-4-yl)-1,3,5-triazin-2-yl]-4-(difluoromethyl)pyridin-2-amine] are 1 nM, 106 nM and 47 nM.
For `C[C@H]1COCCN1c1cc(-c2cnc(N)cc2C(F)F)nc(N2CCOC[C@@H]2C)n1` [Compound 25, 5-(2,6-bis((S)-3-methylmorpholino)pyrimidin-4-yl)-4-(difluoromethyl)pyridin-2-amine] the same measures were 32 nM, 303 nM and 294 nM.
With `Nc1cc(C(F)F)c(-c2cc(N3C4CCC3COC4)nc(N3C4CCC3COC4)n2)cn1` [Compound 22, 5-(6-(3-oxa-8-azabicyclo[3.2.1]octan-8-yl)-2-(3-oxa-8-azabicyclo[3.2.1]octan-8-yl)pyrimidin-4-yl)-4-(difluoromethyl)pyridin-2-amine], the 50% inhibitory concentration (IC50) amounted to 18 nM in data set [1]; 57 nM in data set [4] (A2058, 1 h); 216 nM in data set [5] (A2058, 1 h).
In the same order, the values of `Nc1cc(C(F)F)c(-c2nc(N3C4CCCC3COC4)nc(N3C4COCC3COC4)n2)cn1` [Compound 82, 4-(difluoromethyl)-5-[4-(3,7-dioxa-9-azabicyclo[3.3.1]nonan-9-yl)-6-(3-oxa-9-azabicyclo[3.3.1]nonan-9-yl)-1,3,5-triazin-2-yl]pyridin-2-amine] are 40 nM, 329 nM and 169 nM.
On to `CC1(C)COCCN1c1nc(-c2cnc(N)cc2C(F)F)nc(N2C3COCC2COC3)n1` [Compound 69, 4-(difluoromethyl)-5-[4-(3,3-dimethylmorpholin-4-yl)-6-(3,7-dioxa-9-azabicyclo[3.3.1]nonan-9-yl)-1,3,5-triazin-2-yl]pyridin-2-amine], for which the IC50 in data set [1] was 21 nM; in data set [4] (A2058, 1 h), 244 nM; in data set [5] (A2058, 1 h) it was 140 nM.
Take `C[C@H]1COCCN1c1nc(-c2cnc(N)cc2C(F)F)nc(N2CCOCC2)n1` [Compound 8, (S)-4-(difluoromethyl)-5-(4-(3-methylmorpholino)-6-morpholino-1,3,5-triazin-2-yl)pyridin-2-amine]: the IC50 worked out at 10 nM in data set [1], 74 nM in data set [4] and 68 nM in data set [5].
`C[C@H]1COCCN1c1cc(-c2cnc(N)nc2C(F)(F)F)nc(N2CCOC[C@@H]2C)n1` [reference compound]: the IC50 turned out to be 287 nM in data set [1]; 193 nM in data set [4] (A2058, 1 h); 617 nM in data set [5] (A2058, 1 h).
As for `C[C@@H]1COCCN1c1nc(-c2cnc(N)cc2C(F)F)nc(N2CCOC[C@H]2C)n1` [Compound 41, 5-[4,6-bis[(3R)-3-methylmorpholin-4-yl]-1,3,5-triazin-2-yl]-4-(difluoromethyl)pyridin-2-amine], the IC50 was found to be 22 nM in data set [1], 436 nM in data set [4] and 261 nM in data set [5].
With `Nc1ncc(-c2cc(N3CCOCC3)nc(N3C4CCC3COC4)n2)c(C(F)(F)F)n1` [reference compound], the IC50 in data set [1] was 121 nM; in data set [4] (A2058, 1 h), 340 nM; in data set [5] (A2058, 1 h), 740 nM.
For `Nc1ncc(-c2cc(N3CCOCC3)nc(N3CCOCC3)n2)c(C(F)(F)F)n1` [reference compound], the IC50 in data set [1] worked out at 644 nM; in data set [4] (A2058, 1 h) it was 194 nM; in data set [5] (A2058, 1 h) it was 384 nM.
